What was measured:
Format in all cases: cell-based
human sperm [1] = test: Kinetics of sperm immobilization (timed CASA); conditions: for T½ of sperm immobilization (time for 50% motility loss): 200 μM, 37° C.
Experimental: To test the effect of duration of incubation on sperm immobilization in the presence of oxovanadium (IV) complexes, a motile fraction of sperm 10^7/ml) was incubated at 37° C. in 1 ml of BWW−0.3% BSA in the presence of 200 μM each of the complexes or 0.2% DMSO alone. At timed intervals (every 5 and 10 minutes) aliquots (4 μl) were transferred to two 20 μm Microcell (Conception Technologies) chambers, and sperm motility was assessed by CASA.
For CASA, 4 μl each of sperm suspension was loaded into two 20 μm Microcell chambers placed onto a counting chamber at 37° C. At least 5-8 fields per chamber were scanned for analysis using a Hamilton Thorne Integrated Visual Optical System (IVOS) version 10 instrument (Hamilton Thorne Research Inc., Danvers, Mass.). Each field was recorded for 30 seconds. The Hamilton Thorne computer calibrations were set at 30 frames at a frame rate of 30 images/seconds. Other settings were as follows: minimum contrast 8; minimum size 6; low-size gate, 1.0; high-size gate,2.9; low-intensity gate, 0.6; high-intensity gate, 1.4; phase-contrast illumination; low path velocity at 10 μm/seconds and threshold straightness at 80%; magnification factor, 1.95. The performance of the analyzer was periodically checked using the playback function.

human sperm [2] = test: FITC-Annexin V surface binding flow cytometry; conditions: 100 μM, 12 hours, 37° C.
Experimental: In order to examine the expression of phosphatidyl serine on the sperm surface following oxovanadium (IV) complex exposure, surface binding of FITC-Annexin V was evaluated by flow cyotometry as described in Vermes et al., 1995, J. Immunol. Meth., […]:39-51. One ml aliquots of highly motile sperm (10^7) in triplicate were incubated in BWW−0.3% BSA at 37° C. for 12 hours with and without 100 μM of each of the oxovanadium (IV) complexes VO(phen), VO(phen)2, VO(Me2—phen), VO(Me2—phen)2, VO(Cl—phen), VO(Cl—phen)2, VO(bipy), VO(bipy)2, VO(Me2—bipy), VO(Me2—bipy)2, and VO(Br,OH—acph)2 in 0.1% DMSO. After exposure to these complexes, sperm were washed with 1% Tyrode's salt solution containing 1% BSA (1% TBSA), and the pellets were resuspended in the same medium. The sperm suspension was reacted for 30 minutes at room temperature with 6 μg/ml of FITC-conjugated recombinant human Annexin V (Caltag Laboratories, San Francisco, Calif.). After two washes in Tyrode's salt solution, sperm were resuspended in 1% TBSA containing 1 μg/ml propidium iodide (PI) and analyzed for surface-bound Annexin V and PI-permeability by quantitative flow cytometry using an argon laser for excitation of fluorescence. Annexin V and PI binding were simultaneously measured in oxovanadium (IV) complex-exposed and control sperm as described previously (de Lamirande et al., 1993, Fertil Seril 59:1291-1295). The percentages of sperm positive for Annexin V and PI were determined using the cutoff signals for membrane-intact motile sperm. Two separate experiments were performed to assess the surface expression of phosphatidyl serine following exposure of sperm to oxovanadium (IV) complexes.

human sperm [3] = test: Mitochondrial transmembrane potential (JC-1 dye) flow cytometry; conditions: 100 μM, 3 hours, 37° C.
Excerpt: The loss of ΔΨm, a early marker for apoptosis was quantitated by flow cytometry using the lipophilic cationic dye, 5,5′,6,6′-tetrachloro 1,1′,3,3′-tetraethylbenzimidazolecarbocyanine iodide (JC-1) as described in Cossarizza et al., 1993, BBRC 197:40-45. This dye accumulates in the mitochondrial matrix under the influence of the ΔΨm. The molecule is able to selectively enter into mitochondria, the monomeric form emitting at 527 nm after excitation at 490 nm. However, depending on the membrane potential, JC-1is able to form J-aggregates that are associated with a large shift in emission (590 nm). The color of the dye changes reversibly from green to greenish orange at ΔΨm becomes more polarized.
To quantitate changes in sperm ΔΨm following oxovanadium (IV) complex exposure, highly motile fraction of sperm (10^7/ml) in duplicate aliquots, were incubated at 37° C. for 3 hours in BWW−0.3% BSA medium in the presence and absence of 100 μM each of the vanadocene complexes, VO(phen), VO(phen)2, VO(Me2—phen), VO(Me2—phen)2, VO(Cl—phen), VO(Cl—phen)2, VO(bipy), VO(bipy)2, VO(Me2—bipy), VO(Me2—bipy)2, and VO(Br,OH—acph)2. Following incubation, 10 μg/ml JC-1 (Molecular Probes, Eugene, Oreg.) was added from a stock solution in DMSO (1 mg/ml) to the sperm suspension and incubated for an additional 10 minutes. At the end of the incubation period, sperm were washed in Tyrode's salt solution (Sigma), resuspended in 200 μl, and analyzed by flow cytometry for JC-1-specific fluorescence. The excitation was at 488 nm; the emissions for green and red/orange fluorescence were 530 nm and 575 nm respectively. JC-1 monomer and aggregated fluorescence were simultaneously measured in oxovanadium (IV) complex-exposed and control sperm. The percentages of sperm positive for green, orange, and greenish orange were determined using the cutoff signals for JC-1 labeled motile sperm.

Compound | T½ of sperm immobilization (time for 50% motility loss) (human sperm [1]) [min] | Annexin V positive sperm (%) (human sperm [2]) | Annexin V positive sperm (%) (human sperm [2]; listed as VO(Cl—phen)2) | time of exposure to complete sperm motility loss (human sperm [1]) [min] | JC-1 aggregate-positive sperm (%) (human sperm [3])
Clc1cc2cccnc2c2ncccc12.Clc1cc2cccnc2c2ncccc12.O.O=S(=O)([O-])[O-].[O]=[V+2] [VO(Cl-phen)2, (aqua)bis(5-chloro-1,10-phenanthroline)oxovanadium (IV) sulfate] | 7.3 | 99 | 99 | ≤ 10 | 35
Clc1cc2cccnc2c2ncccc12.O.O.O=S(=O)([O-])[O-].[O]=[V+2] [VO(Cl-phen), (diaqua)(5-chloro-1,10-phenanthroline)oxovanadium (IV) sulfate] | – | 90 | – | – | 39
(aqua)bis(4,4′-dimethyl-2,2′-bipyridyl)oxovanadium (IV) sulfate [VO(Me2-bipy)2] | – | 78 | – | – | 62
(diaqua)(4,4′-dimethyl-2,2′-bipyridyl)oxovanadium (IV) sulfate [VO(Me2-bipy)] | – | 47 | – | – | 88
bis(5′-bromo-2′-hydroxyacetophenone)oxovanadium (IV) [VO(Br,OH-acph)2] | 0.633 | 95 | – | ≤ 2 | 83

The next lines start with results.

T½ of sperm immobilization (time for 50% motility loss) (human sperm [1]) [min] | Annexin V positive sperm (%) (human sperm [2]) | Annexin V positive sperm (%) (human sperm [2]; listed as VO(Cl—phen)2) | Compound | time of exposure to complete sperm motility loss (human sperm [1]) [min] | JC-1 aggregate-positive sperm (%) (human sperm [3])
– | 17 | – | Cc1ccnc2c1ccc1c(C)ccnc12.Cc1ccnc2c1ccc1c(C)ccnc12.O.O=S(=O)([O-])[O-].[O-2].[V+4] [VO(Me2-phen)2, (aqua)bis(4,7-dimethyl-1,10-phenanthroline)oxovanadium (IV) sulfate] | – | 63
– | 96 | – | Cc1ccnc2c1ccc1c(C)ccnc12.O.O.O=S(=O)([O-])[O-].[O]=[V+2] [VO(Me2-phen), (diaqua)(4,7-dimethyl-1,10-phenanthroline)oxovanadium (IV) sulfate] | – | 38
– | 26 | – | O.O=S(=O)([O-])[O-].[O-2].[V+4].c1ccc(-c2ccccn2)nc1.c1ccc(-c2ccccn2)nc1 [VO(bipy)2, (aqua)bis(2,2′-bipyridyl)oxovanadium (IV) sulfate] | – | 94
– | 36 | – | O.O.O=S(=O)([O-])[O-].[O]=[V+2].c1ccc(-c2ccccn2)nc1 [VO(bipy), (diaqua)(2,2′-bipyridyl)oxovanadium (IV) sulfate] | – | 95
– | 98 | – | O.O=S(=O)([O-])[O-].[O]=[V+2].c1cnc2c(c1)ccc1cccnc12.c1cnc2c(c1)ccc1cccnc12 [VO(phen)2, (aqua)bis(1,10-phenanthroline)oxovanadium (IV) sulfate] | – | 25
– | 97 | – | O.O.O=S(=O)([O-])[O-].[O]=[V+2].c1cnc2c(c1)ccc1cccnc12 [VO(phen), (diaqua)(1,10-phenanthroline)oxovanadium (IV) sulfate] | – | 35

— patent US6337348B1, “Oxy-vanadium (iv) complexes having spermicidal activity” (Parker Hughes Institute, priority 1998, dated 2002)
